Results as given in patent publication US10568873B1, “Safranal-sorafenib combination therapy for liver cancer” (United Arab Emirates University, priority 2019, dated 2020).

Experiments:
Type in all cases: in vivo, male Wistar rats
Cdk1, Cyclin B1, Cdc25B = assay: Western blot of cell cycle-related proteins in liver
Description: (§1) A modified version of the protocol described by DePeralta et al. (2016) and Schiffer et al. (2005) was used here to establish the hepatocarcinogenesis model.
(§2) On the first 15 weeks, the control PBS group was treated with 1×PBS, whereas the experimental groups were given an intraperitoneal injection (IP) of 50 mg/kg of diethylnitrosoamine (DEN, Sigma Aldrich), a widely used chemical for inducing cancer, once a week. DEN was diluted with 1×PBS. Following a one-week break (week 16), the next three weeks (weeks 17 to 19) of treatment commenced. All drugs were administrated by oral gavage. All doses were chosen according to literature (Alsaied et al., 2014; Karafakioğlu et al., 2017). […]
(§3) One hundredth gm (10 mg) liver was homogenized using 200 μl RIPA buffer (Sigma Aldrich) mixed with 2 μl protease inhibitor and 2 μl phosphatase inhibitor (Sigma Aldrich), and centrifuged at 4° C., 15,000 rpm for 15 minutes. […] Protein concentration was measured by Pierce BCA Protein Assay Kit with Promega GloMax Discover. […] Band density and quantification was done using ImageJ (Amin et al., 2011). […]
(§4) Due to technical reasons, total protein was used in this study as the loading control instead of the other common markers like GAPDH, β-tubulin, and β-actin. […] Ten internal controls were used, and their expressions were determined using RT-PCR. […]

PCNA = assay: Western blot of proliferation-related protein PCNA in liver; conditions: normalized to total protein, n=4, P<0.05, FIG. 7
Description: as §1, §2, §3, §4

[1] = test system: DEN-induced hepatic neoplasia in rats; assay: Serum ALT and AST biochemical analysis in DEN-induced HCC rats; conditions: P<0.05, one-way ANOVA, Tukey
Description: as §1
On the first 15 weeks, the control PBS group was treated with 1×PBS, whereas the experimental groups were given an intraperitoneal injection (IP) of 50 mg/kg of diethylnitrosoamine (DEN, Sigma Aldrich), a widely used chemical for inducing cancer, once a week. DEN was diluted with 1×PBS. Following a one-week break (week 16), the next three weeks (weeks 17 to 19) of treatment commenced. All drugs were administrated by oral gavage. […] For the HCC+sorafenib group, the drug (Carbosynth Limited) was administered at a dose of 10 mg/kg, five days a week. For the HCC+safranal group, the drug (Sigma Aldrich) was administered at a dose of 200 mg/kg, five days a week. For the HCC+safranal+sorafenib group, the drugs were administered at a dose of 200 mg/kg safranal+10 mg/kg sorafenib, five days a week. Both safranal and sorafenib were diluted with 1×PBS and drops of Tween 80. […] After 24-hours from last treatment, the rats were euthanized by mild diethyl ether and dissected in equal conditions. […]
Alanine Transaminase (ALT), and Aspartate Aminotransferase (AST) assays were performed using commercial kits (Abcam), according to the protocol provided. ALT and AST activities were measured spectrophotometrically using Epoch by BioTek.

[2] = test system: Bcl-2, Bax, Pro-Caspase-9, Pro-Caspase-3, PARP; assay: Western blot of intrinsic apoptosis-related proteins in liver
Description: as §1
(§5) On the first 15 weeks, the control PBS group was treated with 1×PBS, whereas the experimental groups were given an intraperitoneal injection (IP) of 50 mg/kg of diethylnitrosoamine (DEN, Sigma Aldrich), a widely used chemical for inducing cancer, once a week. DEN was diluted with 1×PBS. Following a one-week break (week 16), the next three weeks (weeks 17 to 19) of treatment commenced. All drugs were administrated by oral gavage. All doses were chosen according to literature (Alsaied et al., 2014; Karafakioğlu et al., 2017). For the HCC+sorafenib group, the drug (Carbosynth Limited) was administered at a dose of 10 mg/kg, five days a week. For the HCC+safranal group, the drug (Sigma Aldrich) was administered at a dose of 200 mg/kg, five days a week. For the HCC+safranal+sorafenib group, the drugs were administered at a dose of 200 mg/kg safranal+10 mg/kg sorafenib, five days a week. Both safranal and sorafenib were diluted with 1×PBS and drops of Tween 80. […] After 24-hours from last treatment, the rats were euthanized by mild diethyl ether and dissected in equal conditions. Blood and whole liver were collected.
One hundredth gm (10 mg) liver was homogenized using 200 μl RIPA buffer (Sigma Aldrich) mixed with 2 μl protease inhibitor and 2 μl phosphatase inhibitor (Sigma Aldrich), and centrifuged at 4° C., 15,000 rpm for 15 minutes. Whole cell lysate was taken and stored at −80° C. Protein concentration was measured by Pierce BCA Protein Assay Kit with Promega GloMax Discover. A total of 35 μg of protein was loaded on a sodium dodecyl sulfate-polyacrylamide gel electrophoresis gel. […] Band density and quantification was done using ImageJ (Amin et al., 2011). […]
as §4

[3] = test system: DEN-induced hepatic neoplasia in rats; assay: Reticulin staining of liver sections; conditions: reticulin-stained sections; FIG. 6
Description: as §1
as §5, with “collected. […]” for “collected.”

[4] = test system: DEN-induced hepatic neoplasia in rats; assay: Liver gross examination and number of liver nodules
Description: as §1
On the first 15 weeks, the control PBS group was treated with 1×PBS, whereas the experimental groups were given an intraperitoneal injection (IP) of 50 mg/kg of diethylnitrosoamine (DEN, Sigma Aldrich), a widely used chemical for inducing cancer, once a week. DEN was diluted with 1×PBS. Following a one-week break (week 16), the next three weeks (weeks 17 to 19) of treatment commenced. All drugs were administrated by oral gavage. […] For the HCC+sorafenib group, the drug (Carbosynth Limited) was administered at a dose of 10 mg/kg, five days a week. For the HCC+safranal group, the drug (Sigma Aldrich) was administered at a dose of 200 mg/kg, five days a week. For the HCC+safranal+sorafenib group, the drugs were administered at a dose of 200 mg/kg safranal+10 mg/kg sorafenib, five days a week. Both safranal and sorafenib were diluted with 1×PBS and drops of Tween 80. […] After 24-hours from last treatment, the rats were euthanized by mild diethyl ether and dissected in equal conditions. Blood and whole liver were collected.

[5] = test system: DEN-induced hepatic neoplasia in rats; assay: Histology (H&E), area of neoplastic foci (AHF); conditions: H&E sections; FIG. 5; P<0.05
Description: as §1
as §5, with “collected. […]” for “collected.”

CC1=C(C=O)C(C)(C)CC=C1 [safranal, 2,6,6-trimethyl-1,3-cyclohexadiene-1-carboxaldehyde]
Cdk1, cyclin B1, Cdc25B decrease versus sorafenib alone (Cdk1, Cyclin B1, Cdc25B; FIG. 9): showed a greater decrease than treatment with sorafenib alone | Cdk1, cyclin B1, Cdc25B levels comparing to HCC animals (Cdk1, Cyclin B1, Cdc25B; P<0.05, FIG. 8, FIG. 9): significantly decreased their levels | PCNA expression (PCNA): significantly downregulated PCNA | ALT levels as compared to HCC group [1]: significantly (P<0.05) decreased ALT levels | expression of the anti-apoptotic protein Bcl-2 compared to HCC groups ([2]; FIG. 10, FIG. 11): significantly (P<0.05) decreased | expression of the pro-apoptotic protein Bax compared to HCC groups ([2]; FIG. 10, FIG. 11): significantly (P<0.05) increased | expression of pro-caspases-9 & 3 and whole PARP compared to HCC group ([2]; P<0.05, FIG. 12): significantly decreased | reticular fibers' breakage and morphology comparing to HCC group [3]: reduced reticular fibers' breakage and restored their morphology | lesions comparing to treatment with sorafenib alone ([4]; FIG. 3): dramatically decreased lesions | number of liver nodules / lesions comparing to HCC animals ([4]; week 20, FIG. 2, FIG. 3): reduced lesions | area of neoplastic foci / restoration of normal liver architecture [5]: seems to enhance (P<0.05) the restoration of the normal architecture of the liver
